{"source": "ChEMBL document CHEMBL6134863", "about": "“Novel Mitochondria-Targeted Asymmetric Heptamethine Cyanine Dye for Cancer Targeted NIR Imaging and Potent Necrosis and Senescence Induction with Prolonged Retention” (J Med Chem, 2025)", "key": {"[1]": {"test": "Drug accumulation in BALB/c mouse plasma implanted with mouse 4T1 cells assessed as increase in fluorescence intensity at 0.5 mg/kg, iv measured at 96 to 120 hrs by imaging based analysis", "type": "ADME, organism-based", "conditions": "in vivo, time 96-120 hrs"}, "[2]": {"test": "Antioxidant activity of compound in presence of TBHP", "type": "functional"}, "[3]": {"test": "Antioxidant activity of compound in presence of OH", "type": "functional"}, "[4]": {"test": "Antioxidant activity of compound in presence of HSO3-", "type": "functional"}, "[5]": {"test": "Cytotoxicity against human Primary lung fibroblast assessed as decrease in cell viability up to 5 uM incubated for 24 hrs by CCK-8 assay", "type": "toxicity, cell-based"}, "[6]": {"test": "Drug uptake in human NCI-H226 cells assessed as increase in red fluorescence intensity at 5 uM incubated for 30 mins by CY7 staining based microscopic analysis", "type": "ADME, cell-based", "conditions": "nci-h226, 0.5 h"}, "[7]": {"test": "Drug uptake in mouse 4T1 cells assessed as increase in red fluorescence intensity at 5 uM incubated for 30 mins by CY7 staining based microscopic analysis", "type": "ADME, cell-based", "conditions": "4t1, 0.5 h"}, "[8]": {"test": "Toxicity in BALB/c mouse implanted with mouse 4T1 cells assessed as heart damage at 5 mg/kg, iv measured for 11 days by H and E staining based analysis", "type": "organism-based", "conditions": "in vivo, 264 h, time 11 day"}, "[9]": {"test": "Acute toxicity in BALB/c mouse implanted with mouse 4T1 cells at 5 mg/kg, iv measured for 11 days", "type": "organism-based", "conditions": "in vivo, 264 h, time 11 day"}, "[10]": {"test": "Antioxidant activity of compound in presence of Br-", "type": "functional"}, "[11]": {"test": "Antioxidant activity of compound in presence of HCHO", "type": "functional"}, "NCI-H226 [12]": {"test_system": "NCI-H226", "test": "Induction of apoptosis in human NCI-H226 cells assessed as necrotic cells at 5 uM incubated for 48 hrs by Annexin V-FITC/PI staining based flow cytometry (reference value: 0.048 %)", "type": "functional"}, "[13]": {"test": "Drug uptake in human NCI-H226 cells assessed as increase in fluorescence intensity incubated for 24 hrs by fluorescence based microscopic analysis", "type": "ADME, cell-based", "conditions": "nci-h226, 24 h"}, "NCI-H226 [14]": {"test_system": "NCI-H226", "test": "Cytotoxicity against human NCI-H226 assessed as decrease in cell viability up to 10 uM incubated for 24 hrs by CCK-8 assay", "type": "functional, cell-based"}, "[15]": {"test_system": "Squamous carcinoma cell line", "test": "Antitumor activity against patient-derived Squamous carcinoma cell line xenografted in BALB/c mouse assessed as tumor growth inhibition at 0.5 mg/kg, iv measured for 5 days", "type": "functional, organism-based", "conditions": "Homo sapiens, time 5.0 day"}, "[16]": {"test": "Drug accumulation in BALB/c mouse tumor xenografted with human NCI-H520 cells assessed as increase in fluorescence intensity at 0.5 mg/kg, iv measured at 96 hrs by imaging based analysis", "type": "ADME, organism-based, Neoplasm", "conditions": "in vivo"}, "[17]": {"test": "Antioxidant activity of compound in presence of Fe3+", "type": "functional"}, "[18]": {"test": "Drug localization in mitochondria of human NCI-H226 cell by MitoTracker Red based NIR confocal microscopic analysis", "type": "ADME"}, "Mitochondrial membrane": {"test_system": "Mitochondrial membrane", "test": "Induction of mitochondrial membrane potential loss in human NCI-H226 cells at 2 uM incubated for 4 hrs by TMRE staining based fluorescence microscopic analysis", "type": "cell membranes"}, "NCI-H226 [19]": {"test_system": "NCI-H226", "test": "Induction of apoptosis in human NCI-H226 cells assessed as viable cells at 5 uM incubated for 48 hrs by Annexin V-FITC/PI staining based flow cytometry (reference value: 93.4 %)", "type": "functional", "conditions": "read-out: Activity"}, "[20]": {"test": "Antioxidant activity of compound in presence of ONOO-", "type": "functional"}, "NIH3T3": {"test_system": "NIH3T3", "test": "Cytotoxicity against mouse 3T3 cells assessed as decrease in cell viability up to 5 uM incubated for 24 hrs by CCK-8 assay", "type": "toxicity, cell-based", "conditions": "nih3t3, 24 h"}, "[21]": {"test": "Antioxidant activity of compound in presence of NO2", "type": "functional"}, "NCI-H250": {"test_system": "NCI-H250", "test": "Antitumor activity against human […] cells xenografted in BALB/c mouse assessed as tumor growth inhibition 0.5 mg/kg, iv measured for 5 days", "type": "functional, organism-based", "conditions": "time 5.0 day"}, "[22]": {"test": "Cytotoxicity against human Primary lung fibroblast assessed as decrease in cell viability up to 10 uM incubated for 24 hrs by CCK-8 assay", "type": "toxicity, cell-based"}, "[23]": {"test": "Antioxidant activity of compound in presence of Glutathione", "type": "functional"}, "[24]": {"test": "Drug uptake in mouse 4T1 cells assessed as increase in green fluorescence intensity at 5 uM incubated for 30 mins by F-actin staining staining based microscopic analysis", "type": "ADME, cell-based", "conditions": "4t1, 0.5 h"}, "[25]": {"test": "Distribution coefficient, logD of compound", "type": "physicochemical", "conditions": "octanol/water"}, "[26]": {"test": "Antioxidant activity of compound in presence of NH4+", "type": "functional"}, "[27]": {"test": "Acute toxicity in BALB/c mouse implanted with mouse 4T1 cells assessed as change in body weight at 5 mg/kg, iv measured for 11 days", "type": "organism-based", "conditions": "in vivo, 264 h, time 11 day"}, "[28]": {"test": "Antioxidant activity of compound in presence of H2O2-", "type": "functional"}, "[29]": {"test": "Antioxidant activity of compound in presence of Cl-", "type": "functional"}, "[30]": {"test": "Photostability of compound in DMSO-H2O incubated for 1 hr irradiated with deuterium lamp by absorbance based analysis", "type": "physicochemical", "conditions": "read-out: Stability"}, "[31]": {"test": "Stability of compound at 30 degreeC by thermogravimetric analysis", "type": "physicochemical"}, "[32]": {"test": "Drug accumulation in tumor to muscle of BALB/c mouse implanted with mouse 4T1 cells at 0.5 mg/kg, iv measured at 4 to 168 hrs", "type": "ADME, organism-based", "conditions": "in vivo, time 4-168 hrs"}, "NCI-H226 [33]": {"test_system": "NCI-H226", "test": "Induction of apoptosis in human NCI-H226 cells assessed as early apoptotic cells at 5 uM incubated for 48 hrs by Annexin V-FITC/PI staining based flow cytometry (reference value: 2.93 %)", "type": "functional"}, "[34]": {"test": "Antioxidant activity of compound in presence of L-Cysteine", "type": "functional"}, "[35]": {"test": "Toxicity in BALB/c mouse implanted with mouse 4T1 cells assessed as survival rate at 5 mg/kg, iv measured for 11 days", "type": "organism-based", "conditions": "in vivo, time 11 day"}, "[36]": {"test": "Antioxidant activity of compound in presence of […]", "type": "functional"}, "[37]": {"test": "Antioxidant activity of compound in presence of Ca2+", "type": "functional"}, "[38]": {"test": "Drug accumulation in BALB/c mouse tumor implanted with mouse 4T1 cells assessed as increase in fluorescence intensity at 0.5 mg/kg, iv measured at 96 hrs by DAPI staining based fluorescence microscopic analysis", "type": "ADME, organism-based, Neoplasm", "conditions": "in vivo"}, "[39]": {"test": "Toxicity in BALB/c mouse implanted with mouse 4T1 cells assessed as liver damage at 5 mg/kg, iv measured for 11 days by H and E staining based analysis", "type": "organism-based", "conditions": "in vivo, 264 h, time 11 day"}, "[40]": {"test": "Toxicity in BALB/c mouse implanted with patient-derived Squamous carcinoma cell line assessed as change in body weight at 0.5 mg/kg, iv measured for 5 days", "type": "organism-based", "conditions": "in vivo, 120 h, time 5 day"}, "[41]": {"test": "Solubility of compound in DMSO-H2O", "type": "physicochemical"}, "[42]": {"test": "Antioxidant activity of compound in presence of RNS", "type": "functional"}, "[43]": {"test": "Ratio of drug level in tumor to muscle of BALB/c mouse implanted with mouse 4T1 cells at 0.5 mg/kg, iv measured at 12 to 24 hrs", "type": "ADME, organism-based", "conditions": "in vivo, time 12-24 hrs"}, "4T1": {"test_system": "4T1", "test": "Antitumor activity against mouse 4T1 cells implanted in BALB/c mouse assessed as tumor growth inhibition 5 mg/kg, iv measured for 11 days", "type": "functional", "conditions": "4T1, 264 h, time 11 day, read-out: TGI"}}, "note": "The source made the active and inactive calls. No cut-off for these calls is given here.", "data": [{"smiles": "CCCN1/C(=C/C=C2\\CCCC(/C=C/C3=[N+](Cc4ccc(C(=O)O)cc4)c4ccccc4C3(C)C)=C2Cl)C(C)(C)c2ccccc21.[Br-]", "values": [{"measurement": "Drug uptake", "setting": "[1]", "result": "Active"}, {"measurement": "Activity", "setting": "[2]", "result": "Active"}, {"measurement": "Activity", "setting": "[3]", "result": "Active"}, {"measurement": "Activity", "setting": "[4]", "result": "Active"}, {"measurement": "Activity", "setting": "[5]", "result": "Non-toxic"}, {"measurement": "Drug uptake", "setting": "[6]", "result": "Active"}, {"measurement": "Drug uptake", "setting": "[7]", "result": "Active"}, {"measurement": "Activity", "setting": "[8]", "result": "Non-toxic"}, {"measurement": "Activity", "setting": "[9]", "result": "Non-toxic"}, {"measurement": "Activity", "setting": "[10]", "result": "Active"}, {"measurement": "Activity", "setting": "[11]", "result": "Active"}, {"measurement": "Activity", "setting": "NCI-H226 [12]", "result": 58.9, "unit": "%"}, {"measurement": "Drug uptake", "setting": "[13]", "result": "Active"}, {"measurement": "Activity", "setting": "NCI-H226 [14]", "result": "Active"}, {"measurement": "TGI", "setting": "[15]", "result": "Active"}, {"measurement": "Drug uptake", "setting": "[16]", "result": "Active"}, {"measurement": "Activity", "setting": "[17]", "result": "Active"}, {"measurement": "Drug uptake", "setting": "[18]", "result": "Active"}, {"measurement": "Activity", "setting": "Mitochondrial membrane", "result": "Active"}, {"measurement": "viability at 5 µM", "setting": "NCI-H226 [19]", "result": 26.3, "unit": "%"}, {"measurement": "Activity", "setting": "[20]", "result": "Active"}, {"measurement": "Activity", "setting": "NIH3T3", "result": "> 80", "unit": "%"}, {"measurement": "Activity", "setting": "[21]", "result": "Active"}, {"measurement": "TGI", "setting": "NCI-H250", "result": "Active"}, {"measurement": "Activity", "setting": "[22]", "result": "Non-toxic"}, {"measurement": "Activity", "setting": "[23]", "result": "Active"}, {"measurement": "Drug uptake", "setting": "[24]", "result": "Active"}, {"measurement": "logD", "setting": "[25]", "result": 4.49}, {"measurement": "Activity", "setting": "[26]", "result": "Active"}, {"measurement": "Activity", "setting": "[27]", "result": "Non-toxic"}, {"measurement": "Activity", "setting": "[28]", "result": "Active"}, {"measurement": "Activity", "setting": "[29]", "result": "Active"}, {"measurement": "remaining at 1 h", "setting": "[30]", "result": 95.8, "unit": "%"}, {"measurement": "Stability", "setting": "[31]", "result": "Stable"}, {"measurement": "Drug uptake", "setting": "[32]", "result": "Active"}, {"measurement": "Activity", "setting": "NCI-H226 [33]", "result": 0.82, "unit": "%"}, {"measurement": "Activity", "setting": "[34]", "result": "Active"}, {"measurement": "survival at 264 h", "setting": "[35]", "result": 100, "unit": "%"}, {"measurement": "Activity", "setting": "[36]", "result": "Active"}, {"measurement": "Activity", "setting": "[37]", "result": "Active"}, {"measurement": "Drug uptake", "setting": "[38]", "result": "Active"}, {"measurement": "Activity", "setting": "[39]", "result": "Non-toxic"}, {"measurement": "Activity", "setting": "[40]", "result": "Non-toxic"}, {"measurement": "solubility", "setting": "[41]", "result": 170, "unit": "µg/mL"}, {"measurement": "Activity", "setting": "[42]", "result": "Active"}, {"measurement": "Ratio", "setting": "[43]", "result": "> 5"}, {"measurement": "inhibition in vivo at 5 mg/kg", "setting": "4T1", "result": "~60", "unit": "%"}]}]}
